Reference: PubChem BioAssay (NCI)
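How tested: cells in 96-well plates exposed to compound for 48 hours at five concentrations. GI50 = concentration required for 50% inhibition of growth. TGI marks complete inhibition of growth.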 Where a SMILES comes first, the peptide text is derived from it.

Tests used:
Experiment in all cases: DTP human tumour cell line panel, 48 h
[1] = test system: SNB-75 CNS
[2] = test system: UACC-62 melanoma
[3] = test system: T-47D breast
[4] = test system: NCI-H522 lung
[5] = test system: A549 NSCLC
[6] = test system: DU-145 prostate
[7] = test system: OVCAR-5 ovarian
[8] = test system: SK-MEL-2 melanoma
[9] = test system: HL-60(TB) leukemia
[10] = test system: CCRF-CEM leukemia
[11] = test system: RPMI-8226 leukemia
[12] = test system: HOP-92 NSCLC
[13] = test system: SK-OV-3 ovarian
[14] = test system: U251 CNS
[15] = test system: MDA-MB-435
[16] = test system: MOLT-4 leukemia
[17] = test system: OVCAR-4 ovarian
[18] = test system: KM12 colon
[19] = test system: CAKI-1 renal
[20] = test system: HCT-116 colon
[21] = test system: RXF 393 renal
[22] = test system: MALME-3M melanoma
[23] = test system: TK-10 renal
[24] = test system: NCI/ADR-RES ovarian
[25] = test system: ACHN renal
[26] = test system: NCI-H23 lung
[27] = test system: HS 578T breast
[28] = test system: M14 melanoma
[29] = test system: NCI-H460 lung
[30] = test system: IGROV1 ovarian
[31] = test system: NCI-H226 lung
[32] = test system: OVCAR-3 ovarian
[33] = test system: K-562 leukemia
[34] = test system: SNB-19 CNS
[35] = test system: SF-539 CNS
[36] = test system: UACC-257 melanoma
[37] = test system: SW-620 colon
[38] = test system: HCT-15 colon
[39] = test system: A498 renal
[40] = test system: EKVX NSCLC
[41] = test system: HT29 colon
[42] = test system: MDA-MB-231 breast
[43] = test system: COLO 205 colon
[44] = test system: 786-0 renal
[45] = test system: HCC-2998 colon
[46] = test system: SF-268 CNS
[47] = test system: PC-3 prostate
[48] = test system: LOX IMVI melanoma
[49] = test system: SK-MEL-5 melanoma
[50] = test system: HOP-62 NSCLC
[51] = test system: SN12C renal
[52] = test system: MCF7 breast
[53] = test system: SF-295 CNS
[54] = test system: OVCAR-8 ovarian
[55] = test system: UO-31 renal
[56] = test system: SK-MEL-28 melanoma
[57] = test system: SR leukemia

## CC(=O)NC(C(=O)N1CCCC1C(=O)O)C(C)C (stereo not drawn) (Ac-Val-Pro-OH; configuration not given here)
[1]
  GI50: 0.032 µg/mL
  TGI: 66.7 µg/mL
[2]
  GI50: 22.4 µg/mL
  TGI: 72.4 µg/mL

## N=C(N)c1ccc(-c2ccc(-c3cc(Cl)cc(Cl)c3)s2)nc1
[3]
  GI50: 2.12 µM
  TGI: 4.99 µM
[4]
  GI50: 2.16 µM
  TGI: 4.73 µM
[5]
  GI50: 2.07 µM
  TGI: 4.56 µM
[6]
  GI50: 1.88 µM
  TGI: 3.33 µM
[1]
  GI50: 1.47 µM
  TGI: 3.03 µM
[7]
  GI50: 1.68 µM
  TGI: 3.05 µM
[8]
  GI50: 2.7 µM
  TGI: 7.02 µM
[9]
  GI50: 2.12 µM
  TGI: 4.95 µM
[10]
  GI50: 2.39 µM
  TGI: 5.86 µM
[11]
  GI50: 2.31 µM
  TGI: 5.26 µM
[12]
  GI50: 3.43 µM
  TGI: 19.4 µM
[13]
  GI50: 2.6 µM
  TGI: 8.15 µM

## CCOC(=O)c1c2c(n3cccc(F)c13)C(=O)c1ncccc1C2=O
[14]
  GI50: 0.0411 µM
  TGI: 1.39 µM
[15]
  GI50: 0.541 µM
  TGI: 10.7 µM
[3]
  GI50: 3.53 µM
  TGI: 25.2 µM
[16]
  GI50: 3.06 µM
  TGI: 23.7 µM
[17]
  GI50: 1.8 µM
  TGI: 11.3 µM
[4]
  GI50: 0.394 µM
  TGI: 3.77 µM
[18]
  GI50: 0.539 µM
  TGI: 18.9 µM
[5]
  GI50: 0.217 µM
  TGI: 1.67 µM
[19]
  GI50: 0.0562 µM
  TGI: 21.8 µM
[20]
  GI50: 0.317 µM
  TGI: 3.91 µM
[21]
  GI50: 0.412 µM
  TGI: 4.1 µM
[6]
  GI50: 0.0761 µM
  TGI: 2.84 µM
[22]
  GI50: 0.541 µM
  TGI: 6.77 µM
[1]
  GI50: 1.72 µM
  TGI: 64.9 µM
[23]
  GI50: 0.216 µM
  TGI: 27.2 µM
[24]
  GI50: 0.436 µM
  TGI: 6.82 µM
[7]
  GI50: 1.16 µM
  TGI: 18.7 µM
[25]
  GI50: 0.0791 µM
  TGI: 2.43 µM
[26]
  GI50: 0.173 µM
  TGI: 3.09 µM
[27]
  GI50: 0.0362 µM
  TGI: 25.6 µM
[28]
  GI50: 0.049 µM
  TGI: 1.29 µM
[29]
  GI50: 0.0263 µM
  TGI: 1.12 µM
[30]
  GI50: 1.6 µM
  TGI: 24.9 µM
[31]
  GI50: 0.51 µM
  TGI: 5.11 µM
[8]
  GI50: 4.81 µM
  TGI: 73.7 µM
[32]
  GI50: 0.22 µM
  TGI: 2.42 µM
[33]
  GI50: 0.357 µM
  TGI: > 100 µM
[9]
  GI50: 1.03 µM
  TGI: 3.69 µM
[34]
  GI50: 0.0703 µM
  TGI: 4.49 µM
[35]
  GI50: 0.157 µM
  TGI: 1.35 µM
[36]
  GI50: 0.849 µM
  TGI: 6.37 µM
[37]
  GI50: 0.151 µM
  TGI: 11.3 µM
[38]
  GI50: 0.0247 µM
  TGI: 12.2 µM
[10]
  GI50: 3.71 µM
  TGI: 37.5 µM
[39]
  TGI: 21.7 µM
[40]
  GI50: 1.07 µM
  TGI: 15.8 µM
[41]
  GI50: 1.34 µM
  TGI: 5.42 µM
[11]
  GI50: 1.91 µM
  TGI: 37.3 µM
[42]
  GI50: 4.14 µM
  TGI: 64.7 µM
[43]
  GI50: 1.27 µM
  TGI: 7.2 µM
[44]
  GI50: 0.114 µM
  TGI: 4.99 µM
[45]
  GI50: 1.29 µM
  TGI: 15.4 µM
[46]
  GI50: 0.0963 µM
  TGI: 28.2 µM
[12]
  GI50: 2.22 µM
  TGI: 9.24 µM
[47]
  GI50: 0.449 µM
  TGI: 7.63 µM
[48]
  GI50: 0.0932 µM
  TGI: 1.92 µM
[49]
  GI50: 0.0994 µM
  TGI: 3.22 µM
[50]
  GI50: 0.0494 µM
  TGI: 5.17 µM
[51]
  GI50: 0.457 µM
  TGI: 17.6 µM
[52]
  GI50: 0.0572 µM
  TGI: 1.27 µM
[53]
  GI50: 0.5 µM
  TGI: 3.69 µM
[13]
  GI50: 0.223 µM
  TGI: 16.3 µM
[54]
  GI50: 1.17 µM
  TGI: 7.47 µM
[55]
  GI50: 0.0189 µM
  TGI: 1.42 µM
[56]
  GI50: 0.486 µM
  TGI: 19.4 µM
[2]
  GI50: 0.222 µM
  TGI: 1.28 µM

## CCOCC[P+](c1ccccc1)(c1ccccc1)c1ccccc1
[14]
  GI50: 18.1 µM
  TGI: 92.5 µM
[15]
  GI50: 9.26 µM
  TGI: 51.9 µM
[3]
  GI50: 4.21 µM
  TGI: > 100 µM
[16]
  GI50: 31.4 µM
  TGI: > 100 µM
[17]
  GI50: 11.9 µM
  TGI: > 100 µM
[4]
  GI50: 11.9 µM
  TGI: 50.9 µM
[18]
  GI50: 11.2 µM
  TGI: > 100 µM
[5]
  GI50: 16.4 µM
  TGI: 87.8 µM
[19]
  GI50: 44.1 µM
  TGI: > 100 µM
[20]
  GI50: 14.7 µM
  TGI: > 100 µM
[6]
  GI50: 27.5 µM
  TGI: > 100 µM
[22]
  GI50: 10.3 µM
  TGI: 61.4 µM
[1]
  GI50: 10.8 µM
  TGI: 53.4 µM
[24]
  GI50: > 100 µM
  TGI: > 100 µM
[7]
  GI50: 25.9 µM
  TGI: > 100 µM
[25]
  GI50: 35.8 µM
  TGI: > 100 µM
[26]
  GI50: 17.5 µM
  TGI: 80.9 µM
[27]
  GI50: 21.7 µM
  TGI: 99.5 µM
[28]
  GI50: 26.5 µM
  TGI: > 100 µM
[29]
  GI50: 25.7 µM
  TGI: > 100 µM
[30]
  GI50: 13.5 µM
  TGI: 63.7 µM
[31]
  GI50: 17.8 µM
  TGI: > 100 µM
[8]
  GI50: 18.6 µM
  TGI: 47.9 µM
[32]
  GI50: 19.3 µM
  TGI: > 100 µM
[33]
  GI50: 14.9 µM
  TGI: > 100 µM
[9]
  GI50: 12.2 µM
  TGI: 36 µM
[34]
  GI50: 21.3 µM
  TGI: > 100 µM
[35]
  GI50: 23.2 µM
  TGI: > 100 µM
[36]
  GI50: 6.86 µM
  TGI: 49.6 µM
[37]
  GI50: 25.2 µM
  TGI: > 100 µM
[38]
  GI50: 73.8 µM
  TGI: > 100 µM
[10]
  GI50: 23 µM
  TGI: > 100 µM
[39]
  GI50: 17.6 µM
  TGI: 64.2 µM
[41]
  GI50: 16.2 µM
  TGI: 96.3 µM
[11]
  GI50: 4.55 µM
  TGI: 40.4 µM
[42]
  GI50: 22.6 µM
  TGI: > 100 µM
[43]
  GI50: 11.7 µM
  TGI: 26.5 µM
[44]
  GI50: 31.3 µM
  TGI: > 100 µM
[46]
  GI50: 27.3 µM
  TGI: > 100 µM
[47]
  GI50: 10.8 µM
  TGI: 72.9 µM
[48]
  GI50: 15.3 µM
  TGI: 42.3 µM
[49]
  GI50: 10.1 µM
  TGI: 25 µM
[50]
  GI50: 29.7 µM
  TGI: > 100 µM
[51]
  GI50: 24.6 µM
  TGI: > 100 µM
[57]
  GI50: 12.1 µM
  TGI: > 100 µM
[52]
  GI50: 13.7 µM
  TGI: 66.4 µM
[53]
  GI50: 20.4 µM
  TGI: 78.6 µM
[13]
  GI50: 20.1 µM
  TGI: 79.8 µM
[54]
  GI50: 22.2 µM
  TGI: > 100 µM
[55]
  GI50: 34.8 µM
  TGI: > 100 µM
[56]
  GI50: 16 µM
  TGI: 70.6 µM
